The text below walks through data of patent US20130203830A1, “Compounds for Prevention of Cell Injury” (SULFATEQ B.V., priority 2010, published 2013).

“Also recorded” adds a separate entry of the source.

For test [1], the system named is SMAC cells. In words: H2S production in SMAC cells at 3° C. (methylene blue, supernatant). The note with it: SMAC cells incubated at 3° C. for 24 hour. It is filed as cell-based, rat. On the procedure: (§1) Methylene blue method for H2S detection was applied to quantitatively measure the H2S production. Cells were washed with PBS, scraped and centrifuged for 60 sec at 1000 rpm. After removal of the supernatant, zinc acetate 1% in water (200 μl) was added to the cell sediments and the cells were disrupted by small glass beads and vortexed for 20 seconds. Diamine-ferric solution was prepared by mixing 100 μl of a 400 mg N,N-dimethyl-p-phenylenediamine dihydrochloride dissolved in 10 ml 6M HCl and 100 μl of 600 mg ferric chloride in 10 ml 6M HCl. Two hundred μl of this mixture was added to the cell suspension and after an incubation time of 30 min at 37° C. and centrifugation, the amount of methylene blue formed in the supernatant was measured at a wavelength of 670 nm. To measure H2S content of supernatant, the same procedure was repeated for the cell free medium of cells incubated at both 37° C. and 3° C. Blanks were made following the same procedure without cells or using fresh medium. The concentration of H2S was calculated by extrapolation using a standard curve obtained from different concentrations of Methylene blue and spectrophotometric measurement at a wavelength of 670 nm. The amount of H2S present was calculated on the basis that every mole of methylene blue formed in this reaction contains 32 g (1 mole) of captured sulfur.
Methylene blue method for H2S detection was applied to quantitatively examine the H2S present in cell supernatant at 0 and 24 hr after hypothermic treatment at 3° C.

Test [2] has as its system CBS. Description: CBS expression in normothermic and hypothermic rat tissue (immunostaining). The note with it: liver, pancreas, lung, kidney, heart; 3° C., 24 hr. From the text:
Two rats (rattus norvegicus) were sacrificed and blood was taken out. The tissues were flushed by either PBS as control or PBS plus dopamine. Liver, pancreas, lung, kidney and heart were harvested. […] Tissues were fixed after being taken out of cold room. The tissues were later embedded in Paraffin, cut into 5 μm sections and stained with CBS antibody.

Test [3] relates to SMAC cells. In words: Survival of SMAC cells after hypothermia (MTS assay / cell counting). Type of test: cell-based, rat. The note with it: for effect on the protective effect of serotonin on hypothermic SMAC cells: 24 h, 3° C., ketanserine 400 ng/ml and 10 μg/ml, fluoxetine 0.005 μM, CBS siRNA. The method, then:
(§2) Cell lines used included NRK (normal rat kidney cells), DDT-1 (hamster ductus deferens muscle cells) and A7R5 (rat vascular smooth muscle cells) cultured in DMEM (Gibco, 41966, UK) and SMAC (rat smooth muscle aortic cells) and THMC (transformed human mesangial cell) cultured in DMEM/F12 (Gibco, E12-719F). All media were supplied with 10% (vol/vol) fetal calf serum and 1% penicillin-streptomycin and cultured at 37° C. in 5% CO2 in 25 cm^2 or 75 cm^2 flasks. For hypothermia experiments, cells were plated in 6 or 96 wells plates and grown to confluence. Thereupon, cells were placed at 3° C. for up to 24 hours. Cell survival was measured by counting of trypan blue stained cells or MTS assay, which measures the number of viable cells. For the latter, 20 μl of MTS solution was added to each well and cells were subsequently placed in the incubator at 37° C. in 5% CO2 for 3 hr before assessing the cell survival by measuring absorption using a microplate reader at 490 nm.
(§3) MTS assay was performed to investigate cell survival after blocking serotonin transporter and hypothermic treatment.

Test [4] has as its target T1, CBS (Homo sapiens, UniProt P35520).
T1 sequence (P35520 1-551): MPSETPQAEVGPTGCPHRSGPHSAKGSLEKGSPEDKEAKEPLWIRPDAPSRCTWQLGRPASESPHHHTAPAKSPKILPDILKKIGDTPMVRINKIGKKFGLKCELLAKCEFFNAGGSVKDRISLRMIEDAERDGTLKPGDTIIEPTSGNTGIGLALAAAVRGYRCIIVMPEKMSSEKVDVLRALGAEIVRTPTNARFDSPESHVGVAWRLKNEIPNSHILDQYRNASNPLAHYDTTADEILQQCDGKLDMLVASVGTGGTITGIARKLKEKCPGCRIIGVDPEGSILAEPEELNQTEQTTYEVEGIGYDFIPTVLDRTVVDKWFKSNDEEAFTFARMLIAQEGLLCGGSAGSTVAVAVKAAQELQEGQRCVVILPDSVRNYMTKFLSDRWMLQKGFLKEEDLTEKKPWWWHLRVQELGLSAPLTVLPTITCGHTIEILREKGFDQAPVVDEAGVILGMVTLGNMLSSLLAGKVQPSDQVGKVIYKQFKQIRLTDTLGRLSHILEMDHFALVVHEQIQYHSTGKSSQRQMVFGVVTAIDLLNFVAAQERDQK
Conditions: binding to CBS; cited from earlier work.

Test [5] has as its system CBS. In words: CBS expression in liver of cooled and rewarmed rats. Type of test: in vivo, rat. The note with it: rats cooled to 15° C. for 3 hr and rewarmed; compared to controls. On the procedure:
(§4) Three groups of male Wistar rats (350-400 gr) were investigated: cooled rats either anesthetized with propofol or ketamine (n=6 each); a non-cooled control group briefly anesthetized with isofluran was sacrificed at 37° C. (n=3). After anesthesia with isofluran, the trachea was intubated with a […] cuffed tube and mechanical ventilation was started with air. A 5F central venous catheter was introduced in the internal jugular vein for blood sampling, hydration and administration of the anesthetic. A catheter was inserted in the common carotid artery for continuous monitoring of systemic arterial pressure and for blood gas analysis. Cardiovascular and oxygen saturation monitoring was performed during the entire procedure. After preparation, isoflurane was stopped and anesthesia was maintained with either propofol-Lipro (20 mg/m; Braun, Melsungen, Duitsland) at 2 ml/h or ketamine 0.6 ml/hr for 1 hr. Cooling of the animals was accomplished by an external cooling blanket and ice packs. […] Rats were kept at this temperature for 3 hr, followed by rewarming to 37° C. in about 1 hr using a heating blanket and warm air. The rats were then kept at 37° C. for another hr, followed by sacrification by exsanguination. […]
CBS (cystathionine betasynthase) expression was also measured as the one of the main enzymes producing H2S in the liver.

Test [6] can be described thus: Serum H2S concentration in rats (methylene blue method). It is filed as in vivo, rat. Conditions: throughout cooling and rewarming procedure, compared to control.
Another test concerns male Wistar rats. In words: In vivo protection from hypothermic liver damage (FABP1 expression). More on the design: species or system rat. Conditions: rats cooled to 15° C. for 3 hr and rewarmed to 37° C.; compared to non-cooled control. On the procedure:
as §4, with “exsanguination. Blood sampling was performed at the end of the preparation period and every hr after the body temperature reached 15° C.” for “exsanguination.”

Test [7] concerns DDT-1 cells. In words: H2S content of DDT-1 cells (methylene blue method). Type of test: cell-based, hamster. Conditions: hypothermia, at 24 h. The method, then: as §1
Test [8] concerns DDT-1 cells. Description: Survival of DDT-1 cells after hypothermia (MTS assay). Type of test: cell-based, hamster. The note with it: 3° C.; for resistance / survival of DDT-1 cells in hypothermia: 24 h, ketanserine 400 ng/ml and 10 μg/ml, fluoxetine 0.005 μM 15 min before, CBS siRNA. On the procedure:
as §2, with “Thereupon, cells were placed at 3° C. for up to 24 hours.” left out
as §3
Parachlorophenyl-alanine (PCPA; Sigma, C6506-5G) was dissolved in warmed, acidified (pH 6.8) DDT-1 medium and vortexed for 5 min to a final concentration of 1.25 μM. Other concentrations were made from this stock solution. Control experiments were performed with a similar solution without PCPA. Anhydrous creatine (Sigma C4255-25G, USA) was dissolved in cell medium and added to wells to exclude the effect of this component. The treatment continued for 4 days until the concentration of indoleamines inside the cells reached half the baseline value. The cells were placed at 3° C., and MTS assay was performed after 24 h.
For orientation: Tetrazolium assays rely on reduction of a dye to a coloured formazan, in cell work by metabolically active cells.

For test [9], the system named is DDT-1 cells. Description: Indoleamine content of DDT-1 cells (Ehrlich reagent). It is filed as cell-based, hamster. The note with it: 4 days of pretreatment, n=8. On the procedure: Ehrlich's reagent was used to quantify the cellular amount of indoles. Qualitative analysis of cellular indoles in cell culture medium at 37° C. and 3° C. was conducted after extraction according to Happold and Hoyle. Five ml of medium was shaken vigorously with 2 ml of xylene. Next, 1 ml of Ehrlich's reagent is applied to the surface of the mixture. Redistribution of xylene through the Ehrlich's reagent induces formation of the rosindole body, a red ring appearing at the lower surface of the xylene layer indicating the presence of indoleamides. The change in indole concentration in DDT-1 cells was measured after washing the cells with PBS, centrifugation (1000 rpm, 5 min) and removal of supernatant. Ehrlich reagent (200 μl) was added to each tube. After 3 min of vortexing, tubes were left for 3 h at 60° C. After centrifugation (1000 rpm, 5 min), color intensity was spectrophotometrically measured at 625 nm. Calibration experiments were carried out using 5-HT (0.025-0.5 mM), which rendered a linear regression with a correlation coefficient (R2) of 0.9996 (data not shown). To verify the accuracy of the Ehrlich reagent experiments automated mass spectrometric analysis was performed on all the samples according to the method set up by Ido P. Kema. […]

As for `NCCc1ccc(O)c(O)c1` [dopamine, 2-(3,4-dihydroxyfenyl)ethylamine], in the test with SMAC cells [1], the H2S production entry is given as “increased H2S production”. The “CBS expression in hypothermic rat tissue” value with CBS [2] is reported as “increased expression; also recorded: upregulation of CBS”.
Take `CN(CC(=O)O)C(=N)N.O=S(=O)(O)O` [Creatine sulfate]: in the test with SMAC cells [3] (SMAC cells, 24 h at 3° C., substance added 15 min before hypothermia), the “protection against hypothermic cell death / reduction in number of cells” value was “did not show any protective effects”.
Regarding `Cc1ncc(COP(=O)(O)O)c(C=O)c1O` [PLP, Pyridoxal 5-Phosphate], at CBS [4], the “free energy of binding reported for PLP” value is -4.81 kcal/mol.
As to `CC(C)c1cccc(C(C)C)c1O` [propofol, 2,6-diisopropylfenol], the “CBS expression in liver” value in the test with CBS [5] was “induces expression of cystathionine beta synthase; also recorded: increased the expression of CBS”. In test [6], the “Serum H2S concentration” value is “increased”. Also, the “liver damage, FABP1 expression in liver” value in the test on male Wistar rats is listed as “protects liver tissue against in vivo hypothermia”. In addition, the H2S production result in the test with SMAC cells [1] is “increased H2S production”.
For `COc1ccc2[nH]cc(CCNC(C)=O)c2c1` [melatonin, N-[2-(5-methoxy-1H-indol-3-yl)ethyl]acetamide], in the test with SMAC cells [1], the H2S production result is on record as “increased H2S production”.
As to `NCC(CC(=O)O)c1ccc(Cl)cc1` (racemic) [baclofen, (RS)-4-amino-3-(4-chlorophenyl)butanoic acid], in the test on SMAC cells [1], the H2S production entry is listed as “increased H2S production”.
As to `NCCc1c[nH]cn1` [histamine, 4-(2′-aminoethyl)-imidazol], in the test on SMAC cells [1], the H2S production result was “increased H2S production”.
Regarding `CNCCC(Oc1ccc(C(F)(F)F)cc1)c1ccccc1` (stereo not drawn) [Fluoxetine], the “H2S concentration inside DDT-1 cells” value with DDT-1 cells [7] is given as “lower concentration of H2S”. Besides, in the test on SMAC cells [3], the “effect on the protective effect of serotonin on hypothermic SMAC cells” value is reported as “complete annihilation of the protective effect of serotonin”. Besides, the “resistance / survival of DDT-1 cells in hypothermia” value in the test on DDT-1 cells [8] is on record as “death of more than half of these cells”.
In the case of `CNC1(c2ccccc2Cl)CCCCC1=O` (stereo not drawn) [ketamine, reference compound], the “CBS expression in liver” value in the test on CBS [5] is “significantly lowered”. In addition, the “Serum H2S concentration” value in [6] is listed as “decreased”. In addition, the “liver damage, FABP1 expression in liver” value in the test on male Wistar rats is “decreased expression of FABP1”.
Consider `O=C(c1ccc(F)cc1)C1CCN(CCn2c(=O)[nH]c3ccccc3c2=O)CC1` [Ketanserine], for which the “effect on the protective effect of serotonin on hypothermic SMAC cells” value with SMAC cells [3] was “nor did it affect the protective effect of serotonin”. Besides, the “resistance / survival of DDT-1 cells in hypothermia” value with DDT-1 cells [8] is given as “did not affect the resistance”.
Regarding `N[C@@H](Cc1ccc(Cl)cc1)C(=O)O` (racemic) [PCPA, parachlorophenylalanine], the “decrease in indoleamine content of the cells” value in the test on DDT-1 cells [9] is reported as 50±10%. Moreover, the “DDT-1 survival following hypothermia after PCPA pretreatment” value in the test with DDT-1 cells [8] (48 hr) is listed as “concentration-dependently decreased; also recorded: blocked”.
